6 molecules from patent US10232013B2, “Use of an antimicrobial peptide TP4 in treating a cancer” (Academia Sinica, priority 2016, dated 2019) can be followed below.

Format in all cases: cell-based, human
One assay has as its system MB231 (MDA-MB231) cells. The assay can be described thus: MTS cell viability assay, MB231. Conditions: MB231, inhibitor added 30 min prior to TP4, cell viability. The procedure:
Cell-lines used in this study were purchased from the Bioresource Collection and Research Center (BCRC) in and the cells were cultured by the standard cell culture procedures and conditions provided by the BCRC. MB231 (BCRC 60425), MB453 (BCRC 60429), and HDF cells were cultured as previously described by Ting et al. MCF7 […] cells were maintained in α-MEM medium (ThermoFisher Scientific) supplemented with 2 mM L-glutamine, 10% FBS, 0.1 mM non-essential amino acids, 1 mM sodium pyruvate, and antibiotics (100 U mL^−1 penicillin G and […] streptomycin). M10 (BCRC 60197) cells were maintained in α-MEM medium (ThermoFisher Scientific) supplemented with 10% FBS and antibiotics. With the exception of MB231 and MB453, all cells were cultured at 37° C. with 5% CO2. For the cell viability and transfection assay, 1×10^4 cells [5×10^3 M10 cells were seeded and cultured for 48 h to allow the cells sufficient time for attachment] were seeded into the wells of a 96-well plate and cultured overnight. For the transfection assays, cells were transfected with 0.1-0.4 μg FOSB/FOSAB expression plasmid (Origene Technology Inc.) and cell viability was determined after 72 h. The transfection efficiencies (number of cells expressing eGFP/all cells) of the MB231 transfection assays were determined by observing ten randomly selected fields (from three independent transfections) of control GFP plasmid transfections under an inverted microscope (Olympus, IX71) coupled to a digital camera (Olympus DP80), using an […] (LCPlanFI 20×/0.40 Ph1). CellSens standard software (Olympus) was used for image acquisition. During the drug treatment assay, inhibitors (PD98059, BAPTA-AM, and AlP II) were added 30 min prior to TP4, and cell viability was determined at indicated time-points. Transfection was performed using LipofectAMINE™ 3000 (ThermoFisher Scientific), according to the manufacturer's recommendations. Knock-down cells were generated by transducing MB231 cells with pre-synthesized FOSB (or control) shRNA lentiviral particles (Santa Cruz Biotechnology), and selecting puromycin-resistant cells in accordance with the manufacturer's standard protocol. MB231 or M10 cells stably expressing eGFP or mOrange2 were generated through transfection with peGFP-puromycin or pmOrange2-C1 plasmid, followed by puromycin (5 μg mL^−1) or G418 (500 μg mL^−1) selection as described above.
Cell viability was quantitatively analyzed using the CellTiter-Glo® Luminescent Cell Viability Assay kit (ATP assay) and CellTiter 96® AQueous Non-Radioactive Cell Proliferation Assay kit (MTS assay) (Promega) in accordance with the manufacturer's protocol. For MTS assay, 1×10^4 cells were seeded into the wells of a 96-well plate and cultured overnight [5×10^3 M10 cells were seeded and cultured for 48 h to enable sufficient well attachment]. Cells were subsequently treated with different doses of TP4 (2.5-20 μg mL^−1) and harvested at the indicated time-points (3-24 h). Reaction mixtures (20 μL: MTS+PMS, using a ratio 20:1) were directly added to the cells, and the plates were incubated for 3 h at 37° C. Absorbance at 490 nm is directly proportional to the number of living cells in culture and was measured using a photometer (SpectraMax® i3, Molecular Devices). ATP assay was performed as previously described by Ting et al. Lactate dehydrogenase (LDH) assays were performed by quantitatively measuring cell lysis with a Cytotoxicity Detection Kit^PLUS (LDH) (Roche) in accordance with the manufacturer's protocol. The LDH standard was purchased from Cayman Chemical. Briefly, 1×10^4 cells were seeded into the wells of a 96-well plate and cultured overnight. Culture media were replaced with fresh medium containing 1% FBS and cells were subsequently treated with different doses of TP4 (2.5-20 μg mL^−1). Supernatants were harvested at 3 h. […]
In general terms: Tetrazolium dyes change colour on reduction, which living cells bring about.

The next assay relates to FOSB in MB231 cells. The assay can be described thus: FOSB induction, Western blot/immunocytochemistry, MB231. As to conditions: for effect of inhibitor on TP4-induced FOSB induction: TNBC cells, pre-treatment prior to TP4, Western blot. The procedure:
(§1) Nuclear extracts were prepared as previously described^23. Equal amounts of nuclear extract (200 μg) were used for immunoprecipitation (IP) using Dynabeads protein G (ThermoFisher Scientific), in accordance with the recommended protocol. cJUN antibody (ThermoFisher Scientific, clone C.238.2) was used for immunoprecipitation. Total cell extract preparation and Western blot were performed as previously described^23. Equal amounts of boiled lysate (20 μg of total cell extract) were separated on acrylamide gels, and then transferred to PVDF membranes. The membranes were incubated in blocking solution (0.1 M PBS, 5% non-fat milk, 0.2% Tween-20) for 1 h at room temperature (RT), and then incubated in the same solution with primary or secondary antibodies (GE Healthcare Life Science). […] Membranes were visualized with enhanced chemiluminescence (Immobilon Western Chemiluminescent HRP substrate, Merck Millipore) and detected by an imaging system (UVP, BioSpectrum™ 500). Signal intensities were determined by densitometric analysis (AlphaInnotech) using the AlphaImager program. The results were expressed as relative densitometric units (RDU) (the densitometric units of FOSB+FOSΔB divided by those of GAPDH).
The plasma membrane and mitochondria were stained by pre-incubating biotinylated-TP4 treated cells (14 μg mL^−1, 3 h) with Alexa Flour 647 dye-conjugated wheat germ agglutinin (WGA) (5 μg mL^−1) (ThermoFisher Scientific) for 10 min at 37° C. or with MitoTracker® Red CMXRos probe (200 nM) (ThermoFisher Scientific) for 45 min at 37° C. prior to cell fixation. […] The fluorescent signal (which is proportional to functional mitochondria) was quantitatively determined using Image J software. […] The fluorescent FOSB signal was quantitatively determined using Image J software. […]
For orientation: A western blot detects proteins with antibodies after separation by electrophoresis.

A further assay relates to FOSB in MB453 cells. The assay can be described thus: FOSB induction, Western blot/immunocytochemistry, MB453. Conditions: Western blot. The procedure:
as §1, with “GAPDH). […]” for “GAPDH).”

The next assay concerns FOSB in MCF7 cells. Nature of the assay: FOSB induction, Western blot/immunocytochemistry, MCF7. As to conditions: Western blot. The procedure: as §1, with “GAPDH). […]” for “GAPDH).”

Counter-ions that a name gives are not always drawn.

In the case of `CC(=O)OCOC(=O)CN(CC(=O)OCOC(C)=O)c1ccccc1OCCOc1ccccc1N(CC(=O)OCOC(C)=O)CC(=O)OCOC(C)=O` [BAPTA/AM, 1,2-Bis(2-aminophenoxy)ethane-N,N,N,N-tetraacetic acid tetrakis(acetoxymethyl ester), reference compound], in the assay on MB231 (MDA-MB231) cells, the “effect of inhibitor on TP4-induced TNBC cell death” value is “disrupted”. The “effect of inhibitor on TP4-induced FOSB induction” value in the assay on FOSB in MB231 cells is on record as “disrupted”.

Consider `COc1cccc(-c2cc(=O)c3ccccc3o2)c1N` [PD98059, reference compound], for which, in the assay on MB231 (MDA-MB231) cells, the “effect of inhibitor on TP4-induced TNBC cell death” value is recorded as “disrupted”.

`CC(=O)O[C@@]12CO[C@@H]1C[C@H](O)[C@@]1(C)C(=O)[C@H](O)C3=C(C)[C@@H](OC(=O)[C@H](O)[C@@H](NC(=O)OC(C)(C)C)c4ccccc4)C[C@@](O)([C@@H](OC(=O)c4ccccc4)[C@H]21)C3(C)C` [docetaxel, Docetaxel]: the FOSB induction entry in the assay with FOSB in MB453 cells and in the assay with FOSB in MCF7 cells was “induced FOSB” each time.

Take `COc1cccc2c1C(=O)c1c(O)c3c(c(O)c1C2=O)C[C@@](O)(C(=O)CO)C[C@@H]3O[C@H]1C[C@H](N)[C@H](O)[C@H](C)O1` [doxorubicin, Doxorubicin hydrochloride]: in the assay with FOSB in MB231 cells (MB231 (TNBC) cells, Western blot), the FOSB induction result is given as “induced strong FOSB expression”.

Take `CC(=O)O[C@H]1C(=O)[C@@]2(C)[C@H]([C@H](OC(=O)c3ccccc3)[C@]3(O)C[C@H](OC(=O)[C@H](O)[C@@H](NC(=O)c4ccccc4)c4ccccc4)C(C)=C1C3(C)C)[C@]1(OC(C)=O)CO[C@@H]1C[C@@H]2O` [paclitaxel, Paclitaxel]: the FOSB induction result with FOSB in MB453 cells and in the assay with FOSB in MCF7 cells was “induced FOSB” each time.

For the molecule “Autocamtide-2 related inhibitory peptide II [AIP2, reference compound]”, the “effect of inhibitor on TP4-induced TNBC cell death” value in the assay on MB231 (MDA-MB231) cells was “partly prevented”. Also, in the assay with FOSB in MB231 cells, the “effect of inhibitor on TP4-induced FOSB induction” value is “trend towards decrease, but not complete block”.
